The values that follow come from PMC3925368 (Bioorganic & medicinal chemistry letters, 2013).

Each structure is given as a SMILES string.

In series [1] the test system is T. brucei rhodesiense. In kind it is in vivo. The conditions noted are these: for In vivo toxicity: 4×50 mg/kg ip in infected mice; for Cures: cure = survival for more than 60 days after infection without a parasitemia relapse, cured/treated mice.
Series [2] relates to T. brucei rhodesiense STIB900. The format is cell-based, Trypanosoma brucei rhodesiense. The conditions noted are these: STIB900 strain, in vitro.
The test system of series [3] is T. brucei brucei. The settings on record: ip doses as low as 3 × 1 mg/kg; cure = survival more than 30 days beyond controls; cited from earlier work.
For series [4] the following is noted: at micromolar concentrations; cited from earlier work.
[5] abbreviates: 4×50 mg/kg ip on days 3–6 post-infection.

Regarding `CS(=O)(=O)O.O=C(Nc1ccc(C2=NCCN2)cc1)c1ccc(C2=NCCN2)cc1` [Compound 10, N-[4-(4,5-Dihydro-1H-imidazol-2-yl)phenyl]-4-(4,5-dihydro-1H-imidazol-2-yl)benzamide dimesylate], the In vivo toxicity entry in series [1] is listed as “no in vivo toxicity”.

Consider `CS(=O)(=O)O.O=C(Nc1ccc(C2=NCCN2)cc1)c1cccc(C(=O)Nc2ccc(C3=NCCN3)cc2)c1` [Compound 2, N,N'-Bis[4-(4,5-dihydro-1H-imidazol-2-yl)phenyl]isophthalamide dimesylate], for which the Cures entry in series [1] (setting [5]) is “completely curative”.

As for `O=C(Nc1ccc(C2=NCCN2)cc1)c1ccc(-c2cc3ccc(C4=NCCN4)cc3[nH]2)cc1` [Compound 11, 6-(4,5-Dihydro-1H-imidazol-2-yl)-2-[4-[[[4-(4,5-dihydro-1H-imidazol-2-yl)phenyl]amino]carbonyl]phenyl]indole], the “T. b. rhodesiense IC50” value in series [2] is given as “single digit nM”.

Take `CS(=O)(=O)O.O=C(Nc1ccc(C2=NCCN2)cc1)c1ccc(C(=O)Nc2ccc(C3=NCCN3)cc2)cc1` [Compound 1, N,N'-Bis[4-(4,5-dihydro-1H-imidazol-2-yl)phenyl]terephthalamide dimesylate]: the “Cure of T. brucei brucei-infected mice” value in series [3] is “completely cured”. In addition, the Mutagenicity result in series [4] was “mutagenic”.

With `CS(=O)(=O)O.O=C(Nc1ccc(C2=NCCN2)cc1)c1ccc(-c2ccc(C(=O)Nc3ccc(C4=NCCN4)cc3)cc2)cc1` [Compound 8, N,N'-Bis[4-(4,5-dihydro-1H-imidazol-2-yl)phenyl]biphenyl-4,4’-dicarboxamide dimesylate], the Cures result in series [1] (setting [5]) is “ineffective”.

`CS(=O)(=O)O.O=C(Nc1ccc(C2=NCCN2)cc1)c1ccc(NC(=O)c2ccc(C3=NCCN3)cc2)cc1` [Compound 5, N-[4-(4,5-Dihydro-1H-imidazol-2-yl)phenyl]-4-[[4-(4,5-dihydro-1H-imidazol-2-yl)benzoyl]amino]benzamide dimesylate]: in series [1], the In vivo toxicity result is recorded as “no in vivo toxicity”.

In the case of `CS(=O)(=O)O.O=C(NCc1ccc(C2=NCCN2)cc1)c1ccc(-c2cc3ccc(C4=NCCN4)cc3[nH]2)cc1` [Compound 12, 6-(4,5-Dihydro-1H-imidazol-2-yl)-2-[4-[[[[4-(4,5-dihydro-1H-imidazol-2-yl)phenyl]methyl]amino]carbonyl]phenyl]indole dimesylate], the “T. b. rhodesiense IC50” value in series [2] is “single digit nM”. In series [1], the In vivo toxicity result is listed as “lethal”. Besides, the Cures entry in series [1] (setting [5]) was “ineffective”. Moreover, in series [1] (4×50 mg/kg ip on days 3–6 post-infection, mice with and without parasitemia relapse), the “Mean Survival Days” value is “toxic ^d”.
